The record followed here is patent US20250127702A1, “SUNSCREEN COMPOSITION WITH CRYSTALLINE ORGANIC SUNSCREEN FILTERS” (Edgewell Personal Care Brands, LLC, priority 2021, published 2025).

The data set can be described thus: Amount of solvent needed to solubilize crystalline sunscreen filters. The class given is physicochemical. Conditions: solvent: butyloctyl salicylate, capric/caprylic triglyceride. An excerpt:
This is unexpected since it theoretically takes at least 37 g of the solvent combination to solvate 3 g of bis-ethylhexyloxyphenol methoxyphenyl triazine (a filter that is harder to solubilize than even avobenzone). Similarly, the theoretical amount of octocrylene, homosalate, octisalate, octinoxate, ethylhexyl benzoate and C12-C15 alkyl benzoate to solvate 3 g of bis-ethylhexyloxyphenol methoxyphenyl triazine is 21 g. […] Additional benefits from relatively less solvent content, such as migration benefits, are discussed below.
This is unexpected since it theoretically takes at least 37 g of the solvent combination to solvate 3 g of bis-ethylhexyloxyphenol methoxyphenyl triazine (a filter that is harder to solubilize than even avobenzone) and 42.8 g of the solvent combination to solvate 15.5 g of the crystalline filter combination.

As to `CCCCC(CC)COc1ccc(-c2nc(-c3ccc(OC)cc3)nc(-c3ccc(OCC(CC)CCCC)cc3O)n2)c(O)c1` (centres unmarked) [bis-ethylhexyloxyphenol methoxyphenyl triazine], the “theoretical amount of the solvent combination to solvate 3 g” value by setting is: (diisobutyl adipate, diethylhexyl maleate, butyl maleate, butyl oleate, isopropyl myristate) “at least 37 g”; (dibutyl adipate and/or diisopropyl adipate) “at least 37 g”.
